# Test results reported in BindingDB's records for patent US11945784 (Cornell University, 2024).
# Target: Serine/threonine-protein kinase/endoribonuclease IRE1 (Homo sapiens, UniProt O75460)
# Assay: In Vitro FRET Assay
# Experimental: In vitro FRET assay was performed to evaluate the ability of select compounds to inhibit IRE1, the results of which are summarized in Table 3. To perform the in vitro FRET assay, 1× complete assay buffer (CAB; […], 50 mM sodium citrate pH 7.15, 1 mM magnesium acetate, 0.02% tween 20) was used to dilute SignalChem IRE1α protein to a final concentration of 2 nM. Selected compounds were serially diluted with DMSO in a non-binding black 384-well plate for a total of 15 ul in each well. 2 ul of the serially diluted compound or DMSO control were then added to new wells containing 98 ul of 1×CAB, for a total volume of 100 ul, 10 ul of which were then transferred to wells of a new plate. 5 ul of the diluted IRE1α was then added to each well. 5 ul of a […] was then added to each well. Fluorescence was then read over 30 minutes in kinetic mode (485/515 nm).Two RNA probes were used, XBP1 wildtype (SEQ ID NO: 2) which is able to be spliced by active IRE1α or XBP1 mutant (SEQ ID NO: 3) which is unable to be spliced. Each probe contained a 5′ 6-FAM modification and a 3′ IOWA Black FQ modification.A second FRET assay was performed to assess ATP-mediated inhibition. In this case, compounds and IRE1α were prepared and combined as discussed above, with the addition of ATP up to 1 mM final concentration. This mixture was incubated at room temperature for 60 minutes and then 5 ul of 400 nM XBP1 wildtype or mutant RNA probe was added. Plates were then read over 30 minutes in kinetic mode (485/515 nm) and rate of fluorescence increase calculated for different compound dilutions to determine IC50.
# Chain of Serine/threonine-protein kinase/endoribonuclease IRE1 (O75460 whole entry): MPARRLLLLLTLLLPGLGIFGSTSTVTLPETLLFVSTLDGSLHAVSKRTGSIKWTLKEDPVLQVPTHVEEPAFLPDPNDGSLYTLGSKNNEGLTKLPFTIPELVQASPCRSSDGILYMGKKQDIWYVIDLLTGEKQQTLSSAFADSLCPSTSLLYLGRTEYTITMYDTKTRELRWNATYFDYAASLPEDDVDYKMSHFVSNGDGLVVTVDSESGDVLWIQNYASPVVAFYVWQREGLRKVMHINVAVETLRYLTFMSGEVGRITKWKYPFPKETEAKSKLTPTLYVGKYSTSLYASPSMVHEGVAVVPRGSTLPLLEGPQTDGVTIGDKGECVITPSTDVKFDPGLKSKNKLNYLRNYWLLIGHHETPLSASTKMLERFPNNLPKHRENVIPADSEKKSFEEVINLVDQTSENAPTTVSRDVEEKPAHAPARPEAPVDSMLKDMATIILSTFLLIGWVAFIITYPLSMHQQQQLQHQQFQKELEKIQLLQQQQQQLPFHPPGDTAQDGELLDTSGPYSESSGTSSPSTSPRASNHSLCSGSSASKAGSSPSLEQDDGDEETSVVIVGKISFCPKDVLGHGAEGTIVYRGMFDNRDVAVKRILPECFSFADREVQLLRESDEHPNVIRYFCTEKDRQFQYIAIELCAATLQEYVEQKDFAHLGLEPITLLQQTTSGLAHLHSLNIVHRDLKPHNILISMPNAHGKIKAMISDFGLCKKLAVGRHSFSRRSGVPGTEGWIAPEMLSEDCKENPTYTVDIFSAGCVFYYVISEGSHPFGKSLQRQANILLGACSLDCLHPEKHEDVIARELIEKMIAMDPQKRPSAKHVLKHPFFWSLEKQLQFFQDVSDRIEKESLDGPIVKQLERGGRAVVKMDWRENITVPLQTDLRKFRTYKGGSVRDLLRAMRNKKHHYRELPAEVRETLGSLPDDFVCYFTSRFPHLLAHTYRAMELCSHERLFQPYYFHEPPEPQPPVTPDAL
row,Compound,IC50
1,"NC1CCC(Nc2ncc(/C=C/c3ccc(NS(=O)(=O)c4ccccc4Cl)nn3)cn2)CC1 (configuration not stated) [US11945784, Compound 2]",< 1 nM
2,"CN(C)C1CCC(Nc2ncc(/C=C/c3ccc(NS(=O)(=O)c4ccccc4Cl)nn3)cn2)CC1 (configuration not stated) [US11945784, Compound 52]",< 1 nM
3,"COc1nc(NS(=O)(=O)c2cnccc2Cl)ccc1/C=C/c1cnc(NC2CCC(N(C)C)CC2)nc1 (configuration not stated) [US11945784, Compound 56]",< 1 nM
4,"CNC1CCC(Nc2ncc(/C=C/c3cc(F)c(NS(=O)(=O)c4ccccc4Cl)nc3OC)cn2)CC1 (configuration not stated) [US11945784, Compound 59]",< 1 nM
5,"Cc1nc(NS(=O)(=O)c2cnccc2Cl)ccc1/C=C/c1cnc(NC2CCC(N(C)C)CC2)nc1 (configuration not stated) [US11945784, Compound 62]",< 1 nM
6,"COc1cc(NS(=O)(=O)c2cnccc2Cl)ccc1/C=C/c1cnc(NC2CCC(N(C)C)CC2)nc1 (configuration not stated) [US11945784, Compound 65]",< 1 nM
7,"COc1c(/C=C/c2cnc(NC3CCC(N(C)C)CC3)nc2)ccc(NS(=O)(=O)c2ccccc2Cl)c1F (configuration not stated) [US11945784, Compound 66]",< 1 nM
8,"COc1cc(NS(=O)(=O)c2ccccc2Cl)c(F)cc1/C=C/c1cnc(NC2CCC(N(C)C)CC2)nc1 (configuration not stated) [US11945784, Compound 67]",< 1 nM
9,"CN(C)C1CCC(Nc2ncc(/C=C/c3ccc(NS(=O)(=O)c4cccc(F)c4Cl)nc3)cn2)CC1 (configuration not stated) [US11945784, Compound 68]",< 1 nM

# Next, values leading:
row,IC50,Compound
1,< 1 nM,"NC1CCC(Nc2ncc(/C=C/c3ccc(NS(=O)(=O)c4ccccc4Cl)c(F)c3)cn2)CC1 (configuration not stated) [US11945784, Compound 3]"
2,< 1 nM,"COc1nc(NS(=O)(=O)c2ccccc2Cl)c(F)cc1/C=C/c1cnc(NC2CCC(N)CC2)nc1 (configuration not stated) [US11945784, Compound 54]"
3,< 1 nM,"COc1nc(NS(=O)(=O)c2ccccc2Cl)ccc1/C=C/c1cnc(NC2CCC(N3CCOCC3)CC2)nc1 (configuration not stated) [US11945784, Compound 57]"
4,< 1 nM,"Cc1nc(NS(=O)(=O)c2ccccc2Cl)c(F)cc1/C=C/c1cnc(NC2CCC(N)CC2)nc1 (configuration not stated) [US11945784, Compound 58]"
5,< 1 nM,"COc1nc(NS(=O)(=O)c2ccccc2Cl)ccc1/C=C/c1cnc(NC2CCC(N3CCCCC3)CC2)nc1 (configuration not stated) [US11945784, Compound 60]"
6,< 1 nM,"CN(C)C1CCC(Nc2ncc(/C=C/c3ccc(NS(=O)(=O)c4ccc(F)cc4Cl)nc3)cn2)CC1 (configuration not stated) [US11945784, Compound 61]"
7,< 1 nM,"CN(C)C1CCC(Nc2ncc(/C=C/c3ccc(NS(=O)(=O)c4cccc(Cl)c4Cl)nc3)cn2)CC1 (configuration not stated) [US11945784, Compound 63]"
8,< 1 nM,"COc1nc(NS(=O)(=O)c2ccccc2Cl)ccc1/C=C/c1cnc(NC2CCC(N3CCSCC3)CC2)nc1 (configuration not stated) [US11945784, Compound 64]"
